Laboratory results published in patent US9593305B2, “Differentiation of pluripotent stem cells” (Janssen Biotech, Inc., priority 2008, dated 2017).

Key:
[1] = tested on: H1 human embryonic stem cells; test: Single-cell monolayer assay with EGF/FGF4, serum free, no activin A (Example 10, Table 10); type: cell-based; conditions: No AA (without Wnt3a); FGF(100 ng/ml); EGF(100 ng/ml)
[2] = tested on: H1 human embryonic stem cells; test: Step-wise differentiation, high content analysis of cell number, insulin, glucagon after step 5 (Example 17); type: cell-based; conditions: GDF-8 in step 1, alone or with a compound
Protocol: Step 5 of the differentiation protocol was carried out over seven days in DMEM-high glucose with 0.1% Albumax, 0.5× Insulin-Transferrin-Selenium, and 1 μM Alk 5 inhibitor. Medium in each well was aspirated and replaced with a fresh aliquot (0.5 ml) on all days. At the conclusion of the fifth step of differentiation, cells from some wells were harvested for analysis by RT-PCR to measure markers of differentiation. Other culture wells were subjected to high content image analysis for protein expression levels of insulin and glucagon.
At the conclusion of culture, assay plates were washed once with PBS (Invitrogen; Cat #14190), fixed with 4% paraformaldehyde (Alexis Biochemical; Cat #ALX-350-011) at room temperature for 20 minutes, then washed three times with PBS and permeabilized with 0.5% Triton X-100 (Sigma; Cat #T8760-2) for 20 minutes at room temperature. […]
Imaging was performed using an IN Cell Analyzer 1000 (GE Healthcare) utilizing the 51008bs dichroic for cells stained with Hoechst 33342 and Alexa Fluor 488. […] Segmentation for the nuclei was determined based on gray-scale levels (baseline range 100-300) and nuclear size. Averages and standard deviations were calculated for each replicate data set. Total protein expression was reported as total intensity or integrated intensity, defined as total fluorescence of the cell multiplied by the area of the cell. […]

Compound | Sox17 Expression, Average Total Intensity [1] | insulin and glucagon expression at the conclusion of step five [2]
O=C1CCN2CCN(CC2)Cc2cc(Cl)cc(c2)Nc2ncnc(n2)-c2cncc(c2)CCCN1 [Compound 34, 5-Chloro-1,8,10,12,16,22,26,32-octaazapentacyclo[24.2.2.1˜3.7˜0.1˜9,13˜0.1˜14.18˜]tritriaconta-3(33), 4,6,9(32), 10,12,14(31), 15,17-nonaen-23-one] | 1.13E+08 | –
GDF-8: growth factor GDF-8, also known as myostatin, member of the TGF-β family | – | resulted in insulin and glucagon expression
